pEC50: −log10 of the molar value.

One series addresses T1, muscarinic receptors (Cavia porcellus, UniProt H0W1Z3).
T1 construct: a distal portion of guinea pig ileum was cut and a segment (1-1.5 cm) was tied at both ends; from tissue; host or cells: guinea pig distal ileum segment (isolated organ bath)
The series is described as follows: Guinea pig ileum bioassay (isotonic contractions). The note with it: for muscarinic agonist activity (in words) / pEC50 / potency compared with pilocarpine (in words): guinea pig ileum; for muscarinic agonist activity (in words) / pEC50: in vitro; for pEC50: read-out: ED50 (the source's name); for potency compared with pilocarpine (in words): relative to pilocarpine; for contractions of guinea pig ileum (FIG. 1), in words: single doses, 9, 10, 8 in increasing order of potency. The protocol:
Guinea Pig Ileum Bioassay. Briefly, a distal portion of guinea pig ileum was cut and a segment (1-1.5 cm) was tied at both ends. One end was connected to a force displacement transducer and the other end to the muscle holder in a 5 ml organ bath. […] After the tissue was allowed to equilibrate for 45-60 minutes, single doses of agonists were administered into the bath and isotonic contractions were recorded on a Grass polygraph.

The conditions of series [1]: cited from earlier work.
The conditions of series [2]: cited from earlier work; for pharmacological activity (in words): products of lactone cleavage or epimerization of pilocarpine; for activity of pilocarpine analogues (in words): less active than pilocarpine.

T1 sequence (H0W1Z3 1-590): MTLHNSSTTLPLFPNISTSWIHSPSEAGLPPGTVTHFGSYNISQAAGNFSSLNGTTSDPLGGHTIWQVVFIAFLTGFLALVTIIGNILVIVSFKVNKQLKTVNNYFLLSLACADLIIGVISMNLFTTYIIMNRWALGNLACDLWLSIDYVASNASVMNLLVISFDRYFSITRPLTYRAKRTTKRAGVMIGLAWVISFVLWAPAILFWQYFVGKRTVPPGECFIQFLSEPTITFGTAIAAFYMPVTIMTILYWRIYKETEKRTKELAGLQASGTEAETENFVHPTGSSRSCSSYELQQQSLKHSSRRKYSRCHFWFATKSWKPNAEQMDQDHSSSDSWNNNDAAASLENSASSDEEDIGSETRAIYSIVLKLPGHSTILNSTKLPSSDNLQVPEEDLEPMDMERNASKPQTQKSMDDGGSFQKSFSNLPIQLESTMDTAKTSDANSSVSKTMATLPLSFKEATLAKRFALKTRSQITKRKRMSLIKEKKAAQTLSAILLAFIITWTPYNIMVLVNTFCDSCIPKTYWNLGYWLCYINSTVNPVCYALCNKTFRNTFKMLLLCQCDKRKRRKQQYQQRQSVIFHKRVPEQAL

`CCN1C(=O)OC[C@@H]1Cc1c[n+](Cc2ccccc2)cn1C` [Compound 7]: on muscarinic receptors, the “muscarinic agonist activity (in words)” value was “inactive”.
As for `CC[C@@H]1C(=O)OC[C@@H]1Cc1cncn1C` [pilocarpine], the “side effects on administration for long periods (in words)” value in series [1] (administered for long periods) is reported as “without side effects”. For the same molecule, the “effect on intraocular pressure (in words)” value in series [1] (narrow and wide angle glaucoma) was “decreases the intraocular pressure”. Besides, in series [1] (topical miotic), the “duration of intraocular pressure lowering” value is on record as “about three”. Moreover, the “duration of biological activity (in words)” value in series [2] (due to hydrolytic cleavage of the lactone ring and/or epimerization) was “short duration of biological activity”.
As for `CC[C@H]1C(=O)OC[C@@H]1Cc1cncn1C` [isopilocarpine], in series [2], the “pharmacological activity (in words)” value is “essentially pharacologically inactive”.
As for `CC[C@H](C(=O)O)[C@H](CO)Cc1cncn1C` [pilocarpic acid], in series [2], the “pharmacological activity (in words)” value is “essentially pharacologically inactive”.
Regarding `CCN1C(=O)OC[C@@H]1Cc1cncn1C` [Compound 8, (S)-3-Ethyl-4-(1'-methyl-5'-imidazolyl)methyl-2-oxazolidinone], on muscarinic receptors, the pEC50 was 6.00; the “potency compared with pilocarpine (in words)” value was “equipotent with pilocarpine”; the “contractions of guinea pig ileum (FIG. 1), in words” value is recorded as “cholinergic muscarinic agonists”. Also, at muscarinic receptors (pilocarpine and 8 compared), the “log concentration-response curves (in words)” value is listed as “parallel log concentration-response curves”.
In the case of `CC[C@@H]1C(=O)OC[C@@H]1Cc1cn(C)cn1` [neopilocarpine], in series [2], the “activity of pilocarpine analogues (in words)” value was “less active”.
In the case of `CCN1C(=O)OC[C@@H]1Cc1cn(Cc2ccccc2)cn1` [Compound 6, (S)-3-Ethyl-4-(1,'-benzyl-4'-imidazolyl)methyl-2-oxazolidinone], the “muscarinic agonist activity (in words)” value on muscarinic receptors is “inactive”.
Consider `CC[C@@H]1C(=O)OC[C@@H]1Cc1cnc[nH]1` [pilocarpidine], for which the “activity of pilocarpine analogues (in words)” value in series [2] is recorded as “less active”.
With `CCN1C(=O)OC[C@@H]1Cc1cn(C)cn1` [Compound 10, (S)-3-Ethyl-4-(1'-methyl-4'-imidazolyl)methyl-2-oxazolidinone], on muscarinic receptors, the “muscarinic agonist activity (in words)” value is “weaker muscarinic agonists”; the pEC50 is 4.85; the “potency compared with pilocarpine (in words)” value is “less active”; the “contractions of guinea pig ileum (FIG. 1), in words” value is recorded as “cholinergic muscarinic agonists”.
The corresponding values for `CCN1C(=O)OC[C@@H]1Cc1c[nH]cn1` [Compound 9, (S)-3-Ethyl-4-(4'-imidazolyl)methyl-2-oxazolidinone] are “weaker muscarinic agonists”, 3.74, “less active” and “cholinergic muscarinic agonists”.
